Test results reported in PMC4849654, “A High-Throughput Cell-Based Screen Identified a 2-[(E)-2-Phenylvinyl]-8-Quinolinol Core Structure That Activates p53” (PLoS ONE, 2016).
Where a SMILES comes first, the peptide text is derived from it. The star is where a group is joined. Cbz = O=C(OCc1ccccc1)*

Columns and labels:
[1] = system: proteasome chymotrypsin-like activity; experiment: Proteasome-Glo chymotrypsin-like activity; format: cell-based; details: C33a cells, 2 hrs, 10 μM or 30 μM
[2] = system: proteasome trypsin-like activity; experiment: Proteasome-Glo trypsin-like activity; format: cell-based; details: C33a cells, 2 hrs, 10 μM or 30 μM
p53-Luc [3] = experiment: TE6 p53-Luc targeted degradation reporter in C33a cells; format: cell-based; details: C33a cells expressing p53-Luc and TE6
Protocol: Adenoviruses were generated using the RAPAd CMV adenoviral expression system (Cellbiolabs, San Diego, CA). High-throughput screening was performed at the University of Illinois High-Throughput Screening Facility. For each group, 1x 10^7 C33a cells were plated in 150 mm^2 dishes in 20 ml cDMEM. For p53xTE6 group, 1 x 10^8 GFU/mL of p53-Luc adenovirus and 1 x 10^9 GFU/mL TE6 adenovirus were plated. For RbxTE7 group, 1 x 10^8 GFU/mL of p60RbRen adenovirus and 1 x 10^9 GFU/mL of βTrCP-E7 adenovirus were added. For control group, Ad-Red was substituted for TE6 or TE7 adenovirus in the p53 control and Rb control, respectively. […] Positive hits were scored as ≥ 2-fold above vehicle treated p53-Luc wells.
For the in vitro assay, E6 was cloned into the pMAL vector in frame with the maltose binding protein. […] We measured luciferase activity after 30 minutes. For the trypsin and chymotrypsin assay, C33a cells were incubated for 2 hours with the indicated compounds at 10 μM and assessed for chymotrypsin and trypsin activity using Proteasome-Glo assay (Promega). […] After incubation, cells were lysed and luciferase activity measured and p53 levels measured by Western blot.

C33a cells [4] = experiment: Cell viability (Cell Titer Glo), C33a; format: cell-based; details: for IC50: C33a cells, 48 hrs, Cell Titer Glo
Protocol: (§1) For the viability assays, 20,000 C33a, HeLa, or siHA cells were plated in white 96 well flat bottom plates. The cells were treated with compounds at concentrations from 0.5 to 30 μM for 48 hrs. After incubation, Cell Titer Glo (Promega) was added to the cells and luminescence read in a Tecan II plate reader. For annexin V and PI staining, 500,000 C33a cells were treated with inhibitor for 24 hrs. The cells were stained with Annexin V-FITC and PI according to eBioscience manufacturer’s instructions and analyzed by flow cytometry.

HeLa cells = experiment: Cell viability (Cell Titer Glo), HeLa; format: cell-based; details: for IC50: HeLa cells, 48 hrs, Cell Titer Glo
Protocol: as §1

siHA cells = experiment: Cell viability (Cell Titer Glo), siHA; format: cell-based; details: 48h
Protocol: as §1

p21, BAX and FAS = experiment: p53 target gene expression (p21, BAX, FAS) by qRT-PCR; format: cell-based; details: HeLa cells, 8h
Description: (§2) RNA from C33a and HeLa was isolated by Trizol and reverse transcribed using the first strand synthesis kit from NEB. Primers for p53, GAPDH and PUMA were used for quantitative real-time PCR (qRT-PCR). Primer sequences include: PUMA (forward primer: CTCAACGCACAGTACGAG and reverse primer: […]), FAS (forward primer: TCTGCCATAAGCCCTGT and reverse primer: GTCTGTGTACTCCTTCCCT), p21 (forward primer: […] and reverse primer: […]), and BAX (forward primer: […] and reverse primer: […]). ΔΔCt values were determined for PUMA using GAPDH to normalize data. Bio-rad SYBR green was used for the amplification and detection of the PCR products on an iCycler (Bio-rad).

p53 [5] = biological target: T1, p53 (Homo sapiens, UniProt P04637, R273C); experiment: p53 nuclear localization by immunofluorescence; format: cell-based; details: C33a cells, 30 μM, 8 hrs
T1 construct: endogenous in cells; host or cells: C33a
Protocol: C33a cells were plated into chamber slides and treated with 30 μM of compounds 3 or, 4 for 4, or 8 hours. As a control, 30 μM cisplatin was used. The cells were fixed with 2.5% formaldehyde for 30 minutes, followed by permeabilization with 0.01% Triton X100 for 30 minutes. Cells were blocked with 5% goat serum for 30 minutes and stained overnight with anti-p53 (Santa Cruz, antibody FL-303) or anti-phospho-H2A.X (cell signaling) in 1% FCS in PBS at 4°. The following day, the cells were washed with PBS and incubated for 45 minutes with anti-rabbit-FITC and DAPI in 1% FCS in PBS. The cells were washed and mounted with ProLong Gold.

p53 [6] = biological target: T1, p53; experiment: Nuclear/cytoplasmic fractionation and Western analysis of p53; format: cell-based; details: C33a cells, 6 hrs, Western
Protocol: For nuclear/cytoplasmic fractionation, 1 × 10^7 C33a cells were treated with 30 μM compound for 6 hrs. The cells were washed with PBS and lysed in 1000 μL of cytoplasmic extraction buffer (10 mM KCl, 10 mM HEPES, pH 7.9, 0.1 mM EDTA, 1 mM dithiothreitol) and incubated on ice for 20 min. 50 μL of 10% NP-40 was added to each lysate, vortexed and then centrifuged at 12,000 × g for 10 min. The cytosolic fraction was collected and the pellet containing the nuclei suspended in 50 μL of nuclear extraction buffer (0.4 M NaCl, 20 mM HEPES, pH 7.9, 1 mM EDTA). The nuclear fraction was incubated for 30 min on ice. The samples were spun at 14,000 × g for 10 min and the supernatants were collected. To concentrate the cytoplasmic fraction, 500 μL methanol, and 200 μL chloroform were added and the samples were vortexed, centrifuged for 10 min at 14,000 × g, and the upper and lower layer were discarded. The solid interphase was collected and suspended in 50 μL of lysis buffer. Equal cell equivalents were loaded on a gel and electrophoresed. For whole cell lysates, C33a cells were lysed with a modified RIPA buffer and subjected to SDS-PAGE electrophoresis. The gels were transferred to nitrocellulose and blots probed with antibodies for p53 (Santa Cruz, antibody FL-303), lamin A/C, and calnexin (Santa Cruz Biotechnology).

PUMA = PUMA transcription by qRT-PCR; format: cell-based; details: 30 μM, 8h
Description: as §2

C33a cells [7] = experiment: Cell viability after p53 siRNA knockdown; format: cell-based; details: p53 siRNA vs scrambled, 10 μM, 48 hrs
Protocol: C33a cells were transfected with 100 pmol siRNA for p53 (Dharmacon, L-003329-00-0005) or AllStar control (Qiagen) using lipofectamine2000 according to manufacturer’s instructions. The cells were incubated for 24 hrs and then split and incubated with 10 μM compounds. Cell viability was measured after 48 hours by Cell Titer Glo. Efficiency of knockdown was determined by quantitative RT-PCR using SYBR green.

p53-Luc [8] = experiment: In vitro E6 degradation assay (recombinant E6 with p53-Luc lysates); format: biochemical; details: 50 ng recombinant E6, 10 μM compound, C33a lysates, 6 hours
Protocol: For the in vitro assay, E6 was cloned into the pMAL vector in frame with the maltose binding protein. The E6 was expressed in bacteria and purified on amylose column. C33a cells were transfected with p53-Luc and incubated overnight. 50 ng recombinant E6 was incubated with 10 μM compound and C33a lysates for 6 hours at 30 degrees. We measured luciferase activity after 30 minutes. For the trypsin and chymotrypsin assay, C33a cells were incubated for 2 hours with the indicated compounds at 10 μM and assessed for chymotrypsin and trypsin activity using Proteasome-Glo assay (Promega). For the in vivo degradation assay, C33a cells expressing Ad-TE6 and Ad-p53 or expressing Ad-TE7 and Ad-Rb-Ren were treated for 8 hours with compounds. After incubation, cells were lysed and luciferase activity measured and p53 levels measured by Western blot.

Structure (SMILES)	chymotrypsin-like proteasome activity [1]	trypsin-like proteasome activity [2]	restoration of p53-Luc luciferase activity (p53-Luc [3])	IC50 (C33a cells [4]) [µM]	IC50 (HeLa cells) [µM]	expression of p21, BAX and FAS (p21, BAX and FAS)	also measured
CC(C)C[C@@H](C=O)NC(=O)[C@H](CC(C)C)NC(=O)[C@H](CC(C)C)NC(=O)OCc1ccccc1 [MG132, reference compound] (Cbz-Leu-Leu-Leu-aldehyde)	significantly inhibited	significantly inhibited	–	–	–	–	–
OCc1ccc(-c2ccc(-c3ccc(CO)s3)o2)s1 [RITA]	–	–	did not restore p53-Luc activity	–	–	–	–
CC(C)C[C@H](NC(=O)[C@H](Cc1ccccc1)NC(=O)c1cnccn1)B(O)O [bortezomib]	–	–	restored p53-Luc luciferase activity	–	–	–	–
N.N.[Cl][Pt][Cl] [cisplatin, reference compound]	–	–	–	24	4.6	–	–
Cc1cccc(/C=C/c2ccc3cccc(O)c3n2)c1O [compound 3]	did not significantly reduce	did not significantly reduce	–	3.8	6	induced expression	cell viability at 30 μM (siHA cells): decreased viability; cell viability at 30 μM (C33a cells [4]; C33a, 30 μM, 48h): decreased viability; cell viability at 30 μM (HeLa cells; HeLa, 30 μM, 48h): decreased viability; p53 nuclear accumulation, % of cell nuclei (p53 [5]): 51.1±2.18 % of cell nuclei; nuclear accumulation of p53 in nuclear fraction compared to vehicle (p53 [6]): higher levels of nuclear accumulation of p53; PUMA transcription upregulation (PUMA; C33a cells): 3.92±0.27 fold; PUMA transcription upregulation (PUMA; HeLa cells): 4.35±0.22 fold; effect of p53 gene knockdown on C33a sensitivity to compound (C33a cells [7]): significantly reversed; restoration of p53 levels in vitro (p53-Luc [8]): restored p53 levels in vitro to similar levels as the proteasome inhibitor MG132
COc1cc(/C=C/c2ccc3cccc(O)c3n2)cc(Br)c1OC [compound 37]	–	–	–	–	–	induced expression	–
